Several values for one entry are separate records, joined by “and”; a condition that tells them apart may be missing. Identical values can stand only once. Counter-ions that a name gives are not always drawn.
## COc1cccnc1C#CCN(c1ccc2ncc(-c3cnn(C)c3)nc2c1)c1c(Cl)c(OC)cc(OC)c1Cl [Compound 785]
  melting point: 190 °C

## [2H]C([2H])([2H])Oc1cc(OC([2H])([2H])[2H])cc(N(CC#Cc2ccncc2)c2ccc3ncc(-c4cnn(C(C)C)c4)nc3c2)c1
  melting point: 146 °C

## COc1cc(OC)cc(N(Cc2nc(C)c[nH]2)c2ccc3ncc(-c4cnn(C)c4)nc3c2)c1 (as salt: HCl)
  melting point: 188 °C

## COc1cc(OC)cc(N(CC2OCCN(C(C)C)C2=O)c2ccc3ncc(-c4cnn(C)c4)nc3c2)c1 (centres unmarked)
  melting point: 187 °C

## COc1cc(OC)cc(N(CC2CC2)c2ccc3ncc(-c4cnn(CCC5CCNCC5)c4)nc3c2)c1
  melting point: 221 °C and 220.78 °C

## COc1cc(OC)cc(N(C/C(C)=N/O)c2ccc3ncc(-c4cnn(C)c4)nc3c2)c1 [Compound 80]
  melting point: 144 °C

## COc1cc(OC)cc(N(Cc2cnccn2)c2ccc3ncc(-c4cnn(C)c4)nc3c2)c1 [Compound 146, N-(3,5-Dimethoxyphenyl)-3-(1-methyl-1H-pyrazol-4-yl)-N-(pyrazin-2-ylmethyl)quinoxalin-6-amine]
  melting point: 163 °C

## COc1cc(OC)cc(N(CCCn2cc(C)nc2C)c2ccc3ncc(-c4cnn(C)c4)nc3c2)c1 (as salt: HCl)
  melting point: 157 °C

## COc1cc(OC(C)C)cc(N(CC2CC2)c2ccc3ncc(-c4cnn(C)c4)nc3c2)c1 [Compound 269]
  melting point: 155.79 °C

## COc1cc(OC)cc(N(CCNC(C)C)c2ccc3ncc(-c4cnn(C5CCN(C(=O)OC(C)(C)C)CC5)c4)nc3c2)c1
  melting point: 66 °C

## COc1cc(OC)cc(N(CCCN2CCC(F)C2)c2ccc3ncc(-c4cnn(C)c4)nc3c2)c1 (centres unmarked)
  melting point: 125 °C

## COc1cc(OC)cc(N(Cc2nc(OC)cc(OC)n2)c2ccc3ncc(-c4cnn(C)c4)nc3c2)c1
  melting point: 127 °C

## COc1cc(OC)cc(N(CC(=O)NCCO)c2ccc3ncc(-c4cnn(C)c4)nc3c2)c1
  melting point: 201.43 °C

## COc1cc(OC)cc(N(CC#CC2(O)CCN(C(=O)OC(C)(C)C)CC2)c2ccc3ncc(-c4cnn(C)c4)nc3c2)c1 [Compound 914]
  melting point: 166 °C

## CNC(=O)OCCN(c1cc(OC)cc(OC)c1)c1ccc2ncc(-c3cnn(C)c3)nc2c1
  melting point: 160 to 162 °C

## COc1cc(OC)cc(N(C[C@@H](O)C(F)(F)F)c2ccc3ncc(-c4cnn(CCCN)c4)nc3c2)c1 [Compound 660, 3-[{3-[1-(3-Aminopropyl)-1H-pyrazol-4-yl]quinoxalin-6-yl}(3,5-dimethoxyphenyl)amino]-1,1,1-trifluoropropan-2-ol]
  melting point: 151 °C

## COCC(O)CN(c1cc(OC)cc(OC)c1)c1ccc2ncc(-c3cnn(C(C)C)c3)nc2c1 (centres unmarked) (as salt: hydrochloric acid salt)
  melting point: 110 °C

## C#CCN(c1cc(OC)cc(OC)c1)c1ccc2ncc(-c3cnn(C)c3)nc2c1 [Compound 38]
  melting point: 168 °C

## COc1cc(OC)cc(N(Cc2ccc(Cl)s2)c2ccc3ncc(-c4cnn(CCO)c4)nc3c2)c1 [Compound 340]
  melting point: 184.2 °C

## COCC(O)CN(c1cc(OC)cc(OC)c1)c1ccc2ncc(-c3cnn(C(C)C)c3)nc2c1 (single isomer, unassigned) (as salt: HCl)
  melting point: 95 °C

## COc1cc(OC)cc(N(CC2CC2)c2ccc3ncc(-c4cnn(CC(=O)N(C)C)c4)nc3c2)c1 [Compound 212]
  melting point: 145.81 °C

## Cn1cc(-c2cnc3ccc(N(CC4CC4)c4cccc(OC(F)(F)F)c4)cc3n2)cn1 [Compound 881]
  melting point: 156.5 °C

## COc1cc(OC)cc(N(CC(F)CN)c2ccc3ncc(-c4cnn(C)c4)nc3c2)c1 (centres unmarked)
  melting point: 168 °C

## COc1cc(F)cc(N(CCO)c2ccc3ncc(-c4cn[nH]c4)nc3c2)c1
  melting point: 80 °C

## COc1cc(OC)cc(N(CC#CC2(O)CCNCC2)c2ccc3ncc(-c4cnn(C)c4)nc3c2)c1
  melting point: 167 °C

## COc1cc(OC)cc(N(CCCNCC(F)(F)F)c2ccc3ncc(-c4cnn(CCCN)c4)nc3c2)c1
  melting point: 175 °C

## COc1cc(OC)cc(N(CCN2CCN(C(C)=O)CC2)c2ccc3ncc(-c4cnn(C)c4)nc3c2)c1 [Compound 143, N-[2-(4-Acetylpiperazin-1-yl)ethyl]-N-(3,5-dimethoxyphenyl)-3-(1-methyl-1H-pyrazol-4-yl)quinoxalin-6-amine]
  melting point: 184.72 °C

## COc1cc(OC)cc(N(CCN2C[C@@H]3C[C@H]2CN3)c2ccc3ncc(-c4cnn(C)c4)nc3c2)c1 (as salt: HCl) [Compound 621]
  melting point: > 260 °C

## COc1cc(OC)cc(N(CCCN2CCCC2=O)c2ccc3ncc(-c4cnn(C)c4)nc3c2)c1 [Compound 132, 1-(3-{(3,5-Dimethoxyphenyl)[3-(1-methyl-1H-pyrazol-4-yl)quinoxalin-6-yl]amino}propyl)pyrrolidin-2-one]
  melting point: 132.47 °C

## COc1cc(OCCO)cc(N(CCCO)c2ccc3ncc(-c4cnn(C)c4)nc3c2)c1
  melting point: 80 °C

## COc1cc(OC)cc(N(CC(O)CN)c2ccc3ncc(-c4cnn(C)c4)nc3c2)c1 (centres unmarked) [Compound 125]
  melting point: 99 °C and 99.31 °C

## COc1cc(OC)cc(N(CCN2CCC(CN)CC2)c2ccc3ncc(-c4cnn(C)c4)nc3c2)c1 (as salt: HCl)
  melting point: 151 °C

## COc1cc(OC)cc(N(CCNC(C)C)c2ccc3ncc(-c4cnn(C5CCOC5)c4)nc3c2)c1 (centres unmarked) (as salt: HCl)
  melting point: 160 °C

## COc1cc(OC)cc(N(C[C@@H]2C[C@H]2CO)c2ccc3ncc(-c4cnn(C)c4)nc3c2)c1 [Compound 89]
  melting point: 126.66 °C and 126 °C

## COc1cc(OC)cc(N(CC#Cc2cc(Cl)nc(N)n2)c2ccc3ncc(-c4cnn(C)c4)nc3c2)c1
  melting point: 220 °C

## COc1cc(OC)cc(N(CCO)c2ccc3ncc(-c4cnn(C)c4CCCO)nc3c2)c1
  melting point: 62 °C

## COc1cc(OC)cc(N(CC2CC2)c2ccc3ncc(-c4cn[nH]c4)nc3c2)c1
  melting point: 158 to 160 °C and 159 °C

## COc1cc(OC)cc(N(CC2CC2)c2ccc3ncc(-c4cnn(CCCNCCS(C)(=O)=O)c4)nc3c2)c1 [Compound 231]
  melting point: 106.81 °C

## COc1cc(OC)cc(N(CCCN2CCCC2)c2ccc3ncc(-c4cnn(CCS(C)(=O)=O)c4)nc3c2)c1 [Compound 295]
  melting point: 155.31 °C

## COc1ccnc(C#CCN(c2ccc3ncc(-c4cnn(C)c4)nc3c2)c2c(F)c(OC)cc(OC)c2F)n1
  melting point: 187 °C

## COc1cc(OC)cc(N(CC(=O)Nc2cc(C)ccn2)c2ccc3ncc(-c4cnn(C)c4)nc3c2)c1
  melting point: 212 °C

## COc1cc(OC)cc(N(CC#Cc2ncccc2OC)c2ccc3ncc(-c4cnn(C)c4)nc3c2)c1 [Compound 652, N-(3,5-Dimethoxyphenyl)-N-[3-(3-methoxypyridin-2-yl)prop-2-yn-1-yl]-3-(1-methyl-1H-pyrazol-4-yl)quinoxalin-6-amine]
  melting point: 144 °C and 142 °C

## COc1cc(OC)cc(N(CC2CC2)c2ccc3ncc(-c4cnn(CCN5CCN(CCO)CC5)c4)nc3c2)c1
  melting point: 146.13 °C

## CNC(=O)Cn1cc(-c2cnc3ccc(N(CCN)c4cc(OC)cc(OC)c4)cc3n2)cn1 [Compound 34]
  melting point: 174 °C and 173.67 °C

## COc1cc(C)cc(N(CC2CC2)c2ccc3ncc(-c4cnn(C)c4)nc3c2)c1 [Compound 228]
  melting point: 132 °C

## COc1cc(OC)cc(N(CC(O)CN2CCOCC2)c2ccc3ncc(-c4cnn(C)c4)nc3c2)c1 (centres unmarked) [Compound 540]
  melting point: 130.63 °C

## COc1cc(F)cc(N(CCNC(C)C)c2ccc3ncc(-c4cn[nH]c4)nc3c2)c1
  melting point: 194 °C

## COc1cc(OC)cc(N(CCN(Cc2ccccc2N)C(C)C)c2ccc3ncc(-c4cnn(C)c4)nc3c2)c1
  melting point: 70 °C

## CN(C)c1cccc(N(CC2CC2)c2ccc3ncc(-c4cnn(C)c4)nc3c2)c1 [Compound 883]
  melting point: 194 °C

## COc1cc(OC)cc(N(CCNC(C)C)c2ccc3ncc(-c4c(C)nn(C)c4C)nc3c2)c1 (as salt: HCl) [Compound 623]
  melting point: 133 °C

## COc1cc(OC)cc(N(c2ccc3ncc(-c4cnn(C)c4)nc3c2)S(=O)(=O)N(C)C)c1
  melting point: 80 °C

## CCn1cc(-c2cnc3ccc(N(CCCN4CCCC4=O)c4cc(OC)cc(OC)c4)cc3n2)cn1 (as salt: HCl)
  melting point: 197 °C

## COc1cc(C#N)cc(N(CC2CC2)c2ccc3ncc(-c4cnn(C)c4)nc3c2)c1
  melting point: 143 °C

## COc1cc(OC)cc(N(CC#Cc2cccc(N)n2)c2ccc3ncc(-c4cnn(C)c4)nc3c2)c1
  melting point: 203 °C

## COc1cc(OC)cc(N(CCC#Cc2ccccc2)c2ccc3ncc(-c4cnn(C)c4)nc3c2)c1 [Compound 919]
  melting point: 130 °C

## COc1cc(OC)cc(N(CC2CC2)c2ccc3ncc(-c4cnn(CCN)c4)nc3c2)c1
  melting point: 130 °C

## CCOc1cc(F)cc(N(CCO)c2ccc3ncc(-c4cnn(C)c4)nc3c2)c1 [Compound 401]
  melting point: 138 °C

## COc1cc(OC)cc(N(CC2CC2)c2ccc3ncc(-c4cnn(CCNS(C)(=O)=O)c4)nc3c2)c1 [Compound 271]
  melting point: 181.91 °C

## COc1cc(OC)cc(N(CCO)c2ccc3ncc(-c4cnn(C)c4CN(C)C)nc3c2)c1
  melting point: 176 °C

## COc1cc(OC)cc(N(CC2CC2)c2ccc3ncc(-c4cnn(CC(O)CO)c4)nc3c2)c1 (centres unmarked) [Compound 37]
  melting point: 154.05 °C and 154 °C

## COc1cc(OC)cc(N(CC2CC2)c2ccc3ncc(-c4cnn(C5CCN(S(C)(=O)=O)CC5)c4)nc3c2)c1
  melting point: 200 °C

## COc1cc(OC)cc(N(CCO)c2ccc3ncc(-c4cnn(C)c4)nc3c2)c1
  melting point: 152.97 °C and 153 °C

## COc1cc(OC)cc(N(CCCN2CCC(F)(F)C2)c2ccc3ncc(-c4cnn(CC5CCOCC5)c4)nc3c2)c1 [Compound 459]
  melting point: 99.32 °C

## COc1cc(OC)cc(N(CCNCC(F)F)c2ccc3ncc(-c4cnn(C)c4)nc3c2)c1 [Compound 513]
  melting point: 160.65 °C

## COc1cc(OC)cc(N(Cc2ccncc2)c2ccc3ncc(-c4cnn(C)c4)nc3c2)c1 [Compound 569]
  melting point: 139 °C

## COCC(O)CN(c1cc(OC)cc(OC)c1)c1ccc2ncc(-c3cnn(C)c3)nc2c1 (centres unmarked) [Compound 397]
  melting point: 132.82 °C

## COc1cc(OC)cc(N(CC2CC2)c2ccc3ncc(-c4cnn(S(=O)(=O)N(C)C)c4)nc3c2)c1 [Compound 58]
  melting point: 163 °C and 165 °C

## COc1cc(OC)cc(N(Cc2ccc(Cl)s2)c2ccc3ncc(-c4cnn(C)c4)nc3c2)c1
  melting point: 140.28 °C
